Experiments:
JEG-3 cells [1] = assay: JEG-3 protocol: [3H]-thymidine incorporation (leptin assay in non-recombinant system); format: cell-based; details: FIG. 4
Procedure: In JEG-3 cells (choriocarcinoma cell line) leptin is able to stimulate proliferation up to 3 fold (Biol. Reprod. (2007) 76: 203-10). […] The radioactivity incorporated by the cells is an index of their proliferative activity and is measured in counts per minute (CPM) with a liquid scintillation beta counter.
This finding can be applied to test whether a compound is able to either reproduce the effect of leptin on cell proliferation (leptin receptor agonist mimetic) (i.e., a given compound will cause an increase in incorporated [^3H]-Thymidine by the cells) or to inhibit the effect of leptin (antagonistic effect) by preventing the leptin-mediated increase in [^3H]-thymidine incorporation.
This approach has the advantage of using a non-recombinant system and has reasonable reproducibility and robustness.

JEG-3 cells [2] = details: Biol. Reprod. (2007) 76: 203-10; cited from earlier work

## Leptin: a hormone synthesized in fat cells that is believed to act in the hypothesis to reduce food intake and body weight
JEG-3 cells [1]; JEG-3 cells (choriocarcinoma cell line), read-out: EC50, concentration-dependent increase in [3H]-thymidine incorporation
  EC50: 2.1 nM
JEG-3 cells [1]; JEG-3 cells
  concentration of maximal effect on [3H]-thymidine incorporation: 100 nM
JEG-3 cells [2]
  stimulation of proliferation: up to 3 fold

— US20110275670A1, “New Compounds VII” (priority 2008, published 2011)
